Data reported in patent US20260216347A1, “Substituted Imidazo-Based Compounds as Ligand Directed Degraders of IRAK3” (Celgene Corporation, priority 2022, published 2026).

What was measured:
[1] = target: T1, IRAK3 (Homo sapiens, UniProt Q9Y616); assay: IRAK3 biochemical binding assay (LanthaScreen Eu Kinase Binding, TR-FRET)
T1 construct: IRAK Endogenous HTRF Degradation Assay; endogenous in cells
T1 sequence (Q9Y616 1-596): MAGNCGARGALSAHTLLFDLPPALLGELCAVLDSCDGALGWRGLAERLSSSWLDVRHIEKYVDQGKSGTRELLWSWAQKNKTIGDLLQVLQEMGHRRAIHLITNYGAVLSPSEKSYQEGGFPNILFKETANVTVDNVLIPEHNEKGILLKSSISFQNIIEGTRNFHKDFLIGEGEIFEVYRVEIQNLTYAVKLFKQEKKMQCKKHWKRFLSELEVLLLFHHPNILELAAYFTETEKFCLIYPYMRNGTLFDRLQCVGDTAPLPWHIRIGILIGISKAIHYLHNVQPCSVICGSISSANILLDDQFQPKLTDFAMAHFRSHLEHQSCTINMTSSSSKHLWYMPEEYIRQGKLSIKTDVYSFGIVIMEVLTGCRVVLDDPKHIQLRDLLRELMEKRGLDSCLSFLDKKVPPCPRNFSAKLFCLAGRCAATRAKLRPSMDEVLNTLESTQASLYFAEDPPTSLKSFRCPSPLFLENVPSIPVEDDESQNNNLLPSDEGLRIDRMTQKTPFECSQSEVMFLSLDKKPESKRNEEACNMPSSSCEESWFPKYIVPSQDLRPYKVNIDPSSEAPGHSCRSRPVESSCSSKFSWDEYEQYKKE
Procedure: Example B3. IRAK3 Biochemical Binding Assay
The LanthaScreen® Eu Kinase Binding assay was performed as described by the vendor (ThermoFisher Scientific Waltham, MA). Briefly, 100× solutions of compound were prepared in DMSO via serial dilution of the 10 mM stock solution in a 384-well reagent plate using 3-fold intervals to achieve final concentrations. 1 μL of the compound dilution series were added to the corresponding wells of a 384-well reagent plate containing 32.3 μL of 1× buffer (50 mM HEPES pH 7.4, […], 1 mM EGTA, 0.01% Brij-35). 5 μL of the buffer diluted compounds were transferred to the corresponding wells of a 384-well assay plate. 5 μL of 3× tracer was transferred to each well of the assay plate for a final tracer concentration of 10 nM. Finally, 5 μL of the 3×Eu-Anti-GST and IRAK3 mix was transferred to each well for a final concentration of 2 nM and 10 nM respectively. Reactions were allowed to incubate for 1 hour at room temperature. TR-FRET signal of the interaction (λex340/λem 665/λem 615) was read at room temperature with a delay time of 100 ρs and an integration time of 200 ρs using an Envision plate reader. Background corrected emission signal ratios at each compound concentration were used to calculate percentage of inhibition (% Inhibition). Plots of % Inhibition versus inhibitor concentrations were fit according to a dose-response equation (Eq. 1) to generate IC50 and Hill slope values using Dotmatics software (Dotmatics, Bishops Stortford, Hertfordshire, England).
Using these assays, IC50, Dmax, EC50, and DC50 values of the following compounds were determined. Dmax is defined as the maximum percent degradation achieved and DC50 is the concentration at which 50% degradation is achieved.

[2] = target: T2, IRAK3-ePL (Homo sapiens, UniProt Q9Y616); assay: IRAK3-ePL overexpressing degradation assay (InCELL Hunter luminescence, dose response); format: cell-based; details: for IRAK3 ePL degradation Ymin: lowest percentage of target protein remaining following compound treatment; for DC50: read-out: IRAK3 ePL degradation EC50
T2 construct: expressed in transfected cells; host or cells: 293T CRBN OE/GSPT1 G575N KI cells, lentiviral transduction, puromycin selected
Procedure: Example B1. IRAK3-ePL Overexpressing Degradation Assay
Stable cell lines were generated by the following protocol. 3×10^5 Lenti-X 293T cells (Clonetech) were plated in 0.8 mL of media in a 12-well plate and incubated overnight at 37° C./5% CO2. Packaging plasmid (0.4 μg, pMD), envelope plasmid (0.4 μg, pSP), and lentiviral transfer IRAK3-ePL plasmid (0.8 μg, TRAK3 sequence NM_007199.3) were mixed in 0.1 mL of Opti-MEM and incubated for 5 min. Simultaneously, 2.4 μL of Lipofectamine 2000 (Invitrogen) was added to 0.1 mL of Opti-MEM (Gibco) and incubated for 5 min. The plasmid DNA and lipofectamine were combined and the mixture was allowed to incubate for 20 min.DNA:Lipofectamine Opti-MEM mixtures were then added to previously plated cells dropwise and the cells were incubated for ~16 h at 37° C./5% CO2. Following incubation, the media was removed and 1.2 mL of fresh media was added per well. Lenti-X 293T cells were incubated for ~30 h at 37° C./5% CO2. […] Following incubation, media was removed from the Lenti-X 293T wells and passed through a […] filter. Part of the viral supernatant was used to transduce cells and the rest was stored at −80° C. Viruses were then added individually (0.5 mL virus) to each well of the 293T^CRBN OE/GSPT1 G575N KI cells, followed by addition of polybrene (10 mg/mL Millipore) to each well at a final concentration of 5.0 μg/mL. Cells were incubated for ~24 h at 37° C./5% CO2. After aspirating media off plates, cells were washed with DPBS, trypsinized and plated in a 10 cm dish in 15 mL of media and […] puromycin. Following incubation of cells for ~72 h at 37° C./5% CO2, media was aspirated off plates, and cells were washed with DPBS and trypsinized. The cells were plated in a 15 cm dish in 40 mL of media with 1.0 μg/mL Puromycin (Gibco) and incubated for ~72 h at 37° C./5% CO2. Following incubation, media was removed and cells were washed with DPBS and trypsinized. The majority of cells were resuspended in Invitrogen freezing media and stored away (~6-8×10^6 cells/vial).
IRAK3-ePL cellular dose response curve degradation assays were performed by the following protocol. Compounds to be tested were dispensed into a white 384-well tissue-culture treated plate using an acoustic liquid handler. Dilutions were prepared based on a 25 μL assay volume in duplicate 10 point 3-fold serial dilutions starting with a 10 μM dose. Negative control wells were included, which only contain 0.2% DMSO to calculate 100% signal. Positive control wells containing 30 μM Ataluren (luciferase inhibitor) were included to calculate the background signal level. All wells were backfilled to a final DMSO concentration of 0.2% to ensure DMSO uniformity across wells. IRAK3-ePL expressing cells (IRAK3-ePL Lenti-X 293T^CRBN/GSPT1 G575N) were washed, trypsinized, counted, and resuspended in fresh DMEM (Gibco) to give a cell concentration of 200,000 cells/mL. 25 μL of cells (5,000 cells/well) were dispensed into the wells of the 384-well plate prespotted with compounds in the previous step and incubated overnight at 37° C./5% CO2. Following incubation, the 384-well plate was taken out of the incubator and left at room temperature for 30 min. InCELL hunter reagent was prepared according to manufacturer's instructions (EA reagent, lysis buffer, and substrate reagent in a 1:1:4 ratio, Cat #96-0002, DiscoverX), which was added to the 384-well plate 25 μL per well. Following the incubation of the plate for 1 h at room temperature, the luminescence signal was read using a ViewLux plate reader. Data was processed and analyzed in ActivityBase software. In short, the average luminescence values of the positive control wells were subtracted from the rest of the wells for background correction, and all luminescence values were normalized to the DMSO control wells. The average value of the DMSO control wells was set to equal 100% of the relative IRAK3-ePL protein levels. […]

| IC50 [1] [nM] | IRAK3 ePL degradation Ymin [2] [%] | DC50 [2] [nM] | SMILES |
| --- | --- | --- | --- |
| 0.05 | – | – | Cc1cc(-c2cnc(Nc3cnn([C@H]4CCCN(CCN5CCN(c6ccc(C7CCC(=O)NC7=O)cc6)CC5)CC4)c3)c3nccn23)c(F)cc1F (single isomer, unassigned) [Compound 111] |
| 0.48 | – | – | Cc1cc(-c2cnc(Nc3cnn([C@@H]4CCCN(CCN5CCN(c6ccc(C7CCC(=O)NC7=O)cc6)CC5)CC4)c3)c3nccn23)c(F)cc1F (single isomer, unassigned) [Compound 112] |
| – | 24 | 0.51 | O=C1CCC(c2ccc(N3CCN(CCN4CCC(n5cc(Nc6ncc(C7CC7)n7ccnc67)cn5)CC4)CC3)cc2)C(=O)N1 (centres unmarked) [Compound 46, 3-(4-(4-(2-(4-(4-((5-cyclopropylimidazo[1,2-a]pyrazin-8-yl)amino)-1H-pyrazol-1-yl)piperidin-1-yl)ethyl)piperazin-1-yl)phenyl) piperidine-2,6-dione] |
| – | 24 | 0.77 | CN1CCOc2ccc(-c3cnc(Nc4cnn(C5CCN(CCN6CCN(c7ccc(C8CCC(=O)NC8=O)cc7)CC6)CC5)c4)c4nccn34)cc21 (centres unmarked) [Compound 48, 3-(4-(4-(2-(4-(4-((5-(4-methyl-3,4-dihydro-2H-benzo[b][1,4]oxazin-6-yl)imidazo[1,2-a]pyrazin-8-yl)amino)-1H-pyrazol-1-yl)piperidin-1-yl)ethyl)piperazin-1-yl)phenyl) piperidine-2,6-dione] |
| – | 24 | 0.54 | O=C1CCC(c2ccc(N3CCN(CCN4CCC(n5cc(Nc6ncc(C7=CCCC7)n7ccnc67)cn5)CC4)CC3)cc2)C(=O)N1 (centres unmarked) [Compound 68, 3-(4-(4-(2-(4-(4-((5-(cyclopent-1-en-1-yl)imidazo[1,2-a]pyrazin-8-yl)amino)-1H-pyrazol-1-yl)piperidin-1-yl)ethyl)piperazin-1-yl)phenyl) piperidine-2,6-dione] |
| 25 | – | – | O=C1CCC(c2ccc(N3CCN(CCN4CCC(n5cc(Nc6ncc(-c7ccc8c(c7)CC8)n7ccnc67)cn5)CC4)CC3)cc2)C(=O)N1 (centres unmarked) [Compound 85, 3-(4-(4-(2-(4-(4-((5-(bicyclo[4.2.0]octa-1(6),2,4-trien-3-yl)imidazo[1,2-a]pyrazin-8-yl)amino)-1H-pyrazol-1-yl)piperidin-1-yl)ethyl)piperazin-1-yl)phenyl) piperidine-2,6-dione] |

Further lines, the compound ahead of its results:

| SMILES | IC50 [1] [nM] | IRAK3 ePL degradation Ymin [2] [%] | DC50 [2] [nM] |
| --- | --- | --- | --- |
| Cc1cc(-c2cnc(Nc3cnn(C4CCN(CCN5CCN(c6ccc(C7CCC(=O)NC7=O)cc6Cl)CC5)CC4)c3)c3nccn23)c(F)cc1F (centres unmarked) [Compound 43, 3-(3-chloro-4-(4-(2-(4-(4-((5-(2,4-difluoro-5-methylphenyl)imdazo [1,2-a]pyrazin-8-yl)amino)-1H-pyrazol-1-yl)piperidin-1-yl)ethyl)piperazin-1-yl)phenyl) piperidine-2,6-dione] | – | 24 | 2.8 |
| O=C1CCC(c2ccc(N3CCN(CC[C@H]4CC[C@H](n5cc(Nc6ncc(C7CC7)n7ccnc67)cn5)CC4)CC3)cc2)C(=O)N1 (stereo partly drawn) [Compound 47, 3-(4-(4-(2-((trans)-4-(4-((5-cyclopropylimidazo[1,2-a]pyrazin-8-yl)amino)-1H-pyrazol-1-yl)cyclohexyl)ethyl)piperazin-1-yl)phenyl) piperidine-2,6-dione] | – | 23 | 0.61 |
| Cc1cc(-c2cnc(Nc3cnn(C4CCN(CCN5CCN(c6ccc(C7CCC(=O)NC7=O)cc6F)CC5)CC4)c3)c3nccn23)c(F)cc1F (centres unmarked) [Compound 49, 3-(4-(4-(2-(4-(4-((5-(2,4-difluoro-5-methylphenyl)imdazo [1,2-a]pyrazin-8-yl)amino)-1H-pyrazol-1-yl)piperidin-1-yl)ethyl)piperazin-1-yl)-3-fluorophenyl)piper idine-2,6-dione] | – | 24 | 2.4 |
| Cc1cc(-c2cnc(Nc3cnn([C@H]4C[C@H](CCN5CCN(c6ccc(C7CCC(=O)NC7=O)cc6)CC5)C4)c3)c3nccn23)c(F)cc1F (stereo partly drawn) [Compound 66, 3-(4-(4-(2-((trans)-3-(4-((5-(2,4-difluoro-5-methylphenyl)imidazo[1,2-a]pyrazin-8-yl)amino)-1H-pyrazol-1-yl)cyclobutyl)ethyl)piperazin-1-yl)phenyl) piperidine-2,6-dione] | – | 32 | 9.6 |
| Cc1cc(-c2cnc(Nc3cnn([C@H]4CC[C@H](CN5CCN(c6ccc(C7CCC(=O)NC7=O)cc6)CC5)CC4)c3)c3nccn23)c(F)cc1F (stereo partly drawn) [Compound 67, 3-(4-(4-(((trans)-4-(4-((5-(2,4-difluoro-5-methylphenyl)imidazo[1,2-a]pyrazin-8-yl)amino)-1H-pyrazol-1-yl)cyclohexyl)methyl)piperazin-1-yl)phenyl) piperidine-2,6-dione] | – | 38 | 5.5 |
| Cc1nc(Nc2cnn(C3CCN(CCN4CCN(c5ccc(C6CCC(=O)NC6=O)cc5)CC4)CC3)c2)c2nccn2c1C (centres unmarked) [Compound 84, 3-(4-(4-(2-(4-(4-((5,6-dimethylimidazo[1,2-a]pyrazin-8-yl)amino)-1H-pyrazol-1-yl)piperidin-1-yl)ethyl)piperazin-1-yl)phenyl)piperidine-2,6-dione] | 24 | – | – |
